Laboratory results from patent US5594012A, “Amino acid derivatives and anti-active oxygen agents” (Ajinomoto Co., Inc., priority 1992, dated 1997).

System: lipid peroxidation in homogenate of murine swiss 3T3 cells
Assay: Inhibitory effects on UV-induced lipid peroxidation (homogenate of murine swiss 3T3 cells)
Format: biochemical
Conditions: 1 mM test compound; UVB 0.4 mW/cm^2, 90 min; pH 7.2 to 7.8; TBA, 535 nm
Procedure: Test for Inhibitory Effects on UV-induced Lipid Peroxidation
The test was carried out on the basis of the methods described in Biochim. Biophys. […] Namely, 12 μl of an aqueous sodium hydroxide solution of each of the test compounds shown in Table 5 below was added to 1.2 ml of a homogenate of murine swiss 3T3 cells (i.e. a kind of murine skin cells) prepared by a conventional method in 20 mM phosphate buffer (protein content: 1.5 to 1.8 mg/ml). The final concentration of the test compounds was adjusted to be 1 mM and the pH of the solution was adjusted to 7.2 to 7.8. If test compounds were not soluble in an aqueous sodium hydroxide solution, they were dissolved in N,N-dimethyl sulfoxide (DMSO).
This solution (1.1 ml) was irradiated with UV rays (0.4 mW/cm^2, 90 min.) using a UVB lamp "EB-280C/J" (manufactured by Spectronics). To an aliquot (1.0 ml) of this solution were successively added 0.2 ml of an aqueous solution of sodium dodecyl sulfate and 1.0 ml of an aqueous solution of thiobarbituric acid/trichloroacetic acid/hydrochloric acid, and the mixed solution was heated in a boiling water bath for 15 minutes. After ice-cooling, the solution was extracted with 1.0 ml of 1-butanol to prepare a sample for determining peroxide lipid as absorbance at a wavelength of 535 nm using a spectrophotometer "Model 320" (manufactured by Hitachi).
(§1) [formula] A1 : Absorbance when a test compound was added. A2 : Absorbance when a test compound was not added.
A3 : Absorbance when a test compound was not added and UV rays were not irradiated.

Compound | % Inhibition of UV-induced lipid peroxidation [%]
O=C(O)CN(CCN(CC(=O)O)CC(=O)O)CC(=O)O [EDTA, reference compound] | 34
O=C(O)CCC(NCc1ccccc1O)C(=O)O (stereo not shown) [Synthesis Example 5] | 52
CC(NCc1ccccc1O)C(=O)O (stereo not shown) [Synthesis Example 6] | 66
O=C(O)C(Cc1ccccc1)NCc1ccccc1O (stereo not shown) [Synthesis Example 7] | 48
CC(C)C(NCc1ccccc1O)C(=O)O (stereo not shown) [Synthesis Example 8] | 60
O=C(O)CNCc1ccccc1O [Synthesis Example 9] | 60
CC(O)C(NCc1ccccc1O)C(=O)O (stereo not shown) [Synthesis Example 10] | 56
NC(=O)CNCc1ccccc1O [Synthesis Example 11] | 77
O=C(O)CCNCc1ccccc1O [Synthesis Example 12] | 29
O=S(=O)(O)CCNCc1ccccc1O [Synthesis Example 13] | 53
OCCNCc1ccccc1O [Synthesis Example 14] | 45
Oc1ccccc1CNCCc1c[nH]cn1 [Synthesis Example 15] | 51

System: lipid peroxidation in murine brain homogenate
Assay: Inhibitory effects on metal ion-induced lipid peroxidation (murine brain homogenate)
Format: biochemical, murine (C57 black mouse)
Conditions: 1 mM test compound; 100 μM ammonium iron (II) sulphate; 37° C., 30 minutes; pH 7.2 to 7.8
Procedure: Test for Inhibitory Effects on Metal Ion-induced Lipid Peroxidation
(§2) The test was carried out according to the method described in Method in Enzymol., Vol. 52, page 302, 1978. A C57 black mouse was killed by cervical dislocation, and the whole brain extracted from the dissected head was washed with 20 mM phosphate buffer (hereinafter referred to as "PBS-2"). Then, the brain was added with PBS-2 in an amount of 19 times its wet weight, and the mixture was disrupted and homogenized with a homogenizer "Polytron" (manufactured by Kinematica). The thus prepared 5% solution of the murine brain homogenate in PBS-2 was diluted 1:5 with fresh PBS-2. To 800 μl of the resulting 1% solution of the murine brain homogenate in PBS-2 (protein content: 0.8 to 1.0 mg/ml) were successively added 100 μl of a PBS-2 solution of each of the test compounds shown in Table 7 below and 100 μl of an aqueous solution of ammonium iron (II) sulphate. The final concentration of the test compounds and ammonium iron (II) sulphate were adjusted to be 1 mM and 100 μM, respectively. If test compounds were not soluble in PBS-2 alone, an aqueous sodium hydroxide solution or DMSO was added. The pH of the solution was adjusted to 7.2 to 7.8.
The solution after heated at 37° C. for 30 minutes was added with 2.0 ml of an aqueous solution of thiobarbituric acid/trichloroacetic acid/hydrochloric acid, and the mixture was heated in a boiling water bath for 15 minutes. After ice-cooling, the solution was extracted with 1.0 ml of 1-butanol to prepare a sample for determining the peroxide lipid in the same way as described in Test Example 1.
as §1
A3 : Absorbance when a test compound was not added and heating at 37° C. for 30 minutes was not carried out.

Compound | % Inhibition of metal ion-induced lipid peroxidation [%]
O=C(O)C(Cc1ccc(O)c(O)c1)N=Cc1c(O)ccc2ccccc12 (stereo not shown) [Synthesis Example 32] | 83
OCC(Cc1c[nH]cn1)N=Cc1c(O)ccc2ccccc12 (stereo not shown) [Synthesis Example 33] | 95
O=C(O)CN=Cc1c(O)ccc2ccccc12 [Synthesis Example 34] | 57
NC(=O)CN=Cc1c(O)ccc2ccccc12 [Synthesis Example 35] | 16
CC(N=Cc1c(O)ccc2ccccc12)C(=O)O (stereo not shown) [Synthesis Example 36] | 80
CC(C)C(CO)N=Cc1c(O)ccc2ccccc12 (stereo not shown) [Synthesis Example 37] | 30
CC(C)CC(N=Cc1c(O)ccc2ccccc12)C(=O)O (stereo not shown) [Synthesis Example 38] | 74
CCC(C)C(N=Cc1c(O)ccc2ccccc12)C(=O)O (stereo not shown) [Synthesis Example 39] | 50
COC(=O)C(CO)N=Cc1c(O)ccc2ccccc12 (stereo not shown) [Synthesis Example 40] | 88
CC(O)C(N=Cc1c(O)ccc2ccccc12)C(=O)O (stereo not shown) [Synthesis Example 41] | 79
CSCCC(N=Cc1c(O)ccc2ccccc12)C(=O)O (stereo not shown) [Synthesis Example 42] | 86
O=C(O)CC(N=Cc1c(O)ccc2ccccc12)C(=O)O (stereo not shown) [Synthesis Example 43] | 40
NC(=O)CC(N=Cc1c(O)ccc2ccccc12)C(=O)O (stereo not shown) [Synthesis Example 44] | 90
COC(=O)C(Cc1c[nH]cn1)N=Cc1c(O)ccc2ccccc12 (stereo not shown) [Synthesis Example 45] | 85
Oc1ccc2ccccc2c1C=NCCc1c[nH]cn1 [Synthesis Example 46] | 80
COC(=O)CCC(N=Cc1c(O)ccc2ccccc12)C(=O)OC (stereo not shown) [Synthesis Example 49] | 81
O=C(CCC(N=Cc1c(O)ccc2ccccc12)C(=O)O)NO (stereo not shown) [Synthesis Example 50] | 85

Compound | % Inhibition of metal ion-induced lipid peroxidation [%]
NC(=O)CCC(N=Cc1c(O)ccc2ccccc12)C(=O)O (stereo not shown) [Synthesis Example 51] | 84
O=C(O)C(Cc1ccccc1)N=Cc1c(O)ccc2ccccc12 (stereo not shown) [Synthesis Example 54] | 83
O=C(O)C(Cc1c[nH]c2ccccc12)N=Cc1c(O)ccc2ccccc12 (stereo not shown) [Synthesis Example 55] | 87
Oc1ccc2ccccc2c1C=NCCc1c[nH]c2ccccc12 [Synthesis Example 56] | 57
O=C(O)C(CO)N=Cc1cc(Cl)ccc1O (stereo not shown) [Synthesis Example 57] | 44
O=C(O)C(CO)N=Cc1cc(Br)ccc1O (stereo not shown) [Synthesis Example 58] | 40
O=C(O)C(CO)N=Cc1cc([N+](=O)[O-])ccc1O (stereo not shown) [Synthesis Example 59] | 11
O=C(O)C(Cc1c[nH]cn1)N=Cc1cc(Cl)ccc1O (stereo not shown) [Synthesis Example 61] | 45
O=C(O)C(Cc1c[nH]cn1)N=Cc1cc(Br)ccc1O (stereo not shown) [Synthesis Example 62] | 45
COc1cccc(C=NC(Cc2c[nH]cn2)C(=O)O)c1O (stereo not shown) [Synthesis Example 63] | 60
CC(C)C(N=Cc1cc(Cl)ccc1O)C(=O)O (stereo not shown) [Synthesis Example 64] | 60
O=S(=O)(O)CCN=Cc1c(O)ccc2ccccc12 [Synthesis Example 65] | 73
O=C(O)CNC(=O)CN=Cc1c(O)ccc2ccccc12 [Synthesis Example 66] | 20
COC(=O)C(Cc1ccccc1)NC(=O)C(CC(=O)O)N=Cc1c(O)ccc2ccccc12 (stereo not shown) [Synthesis Example 67] | 38
CCC(C)C(N=Cc1c(CO)cnc(C)c1O)C(=O)O (stereo not shown) [Synthesis Example 72] | 14
O=C1O[C@H]([C@@H](O)CO)C(O)=C1O [Vitamin C, reference compound] | -23
Vitamin E [reference compound] | 29

System: lipid peroxidation in murine brain homogenate
Assay: Inhibitory effects on lipid peroxidation (murine brain homogenate)
Format: biochemical, murine (C57 black mouse)
Conditions: 30 μM test compound; no added iron; 37° C., 60 minutes; pH 7.2 to 7.8
Procedure: as §2
Test for Inhibitory Effects on Lipid Peroxidation
To 900 μl of a 5% solution of the murine brain homogenate in PBS-2 prepared in the same way as described in Test Example 3 was added 100 μl of a PBS-2 solution of each of the test compounds shown in Table 8 below. The final concentration of the test compounds was adjusted to be 30 μM. If test compounds were not soluble in PBS-2 alone, an aqueous solution of sodium hydroxide or DMSO was added. The pH of the solution was adjusted to 7.2 to 7.8.
The solution after heated at 37° C. for 60 minutes was added with 1.0 ml of an aqeuous solution of thiobarbituric acid/trichloroacetic acid/hydrochloric acid, and the mixture was heated in a boiling water bath for 15 minutes. After ice-cooling, the solution was extracted with 2.0 ml of 1-butanol to prepare a sample for determining the lipid peroxide in the same way as described in Test Example 1. […] [formula] A4 : Absorbance when a test compound was added. A5 : Absorbance when a test compound was not added.
A6 : Abosrbance when a test compound was not added and heating at 37° C. for […] was not carried out.

Compound | % Inhibition of lipid peroxidation [%]
Cc1ncc(CO)c(CNC(C)C(=O)O)c1O (stereo not shown) [Synthesis Example 17] | 56
Cc1ncc(CO)c(CNC(C(=O)O)C(C)O)c1O (stereo not shown) [Synthesis Example 19] | 59
Cc1ncc(CO)c(CNC(CC(=O)O)C(=O)O)c1O (stereo not shown) [Synthesis Example 20] | 91
Cc1ncc(CO)c(CNC(Cc2c[nH]cn2)C(N)=O)c1O (stereo not shown) [Synthesis Example 23] | 39
Cc1ncc(CO)c(CNC(CCCNC(=N)N)C(=O)O)c1O (stereo not shown) [Synthesis Example 24] | 85
Cc1ncc(CO)c(CNC(Cc2ccccc2)C(=O)O)c1O (stereo not shown) [Synthesis Example 25] | 55
Cc1ncc(CO)c(CNC(Cc2ccc(O)cc2)C(=O)O)c1O (stereo not shown) [Synthesis Example 26] | 39
O=C1O[C@H]([C@@H](O)CO)C(O)=C1O [Vitamin C, reference compound] | -22
Vitamin E [reference compound] | 30
